Measurements published in BindingDB's records for patent US20250368634 (SchroDinger, 2025).

Target: T1, Son of sevenless homolog 1 (Homo sapiens, UniProt Q07889)
T1 sequence (Q07889 whole entry): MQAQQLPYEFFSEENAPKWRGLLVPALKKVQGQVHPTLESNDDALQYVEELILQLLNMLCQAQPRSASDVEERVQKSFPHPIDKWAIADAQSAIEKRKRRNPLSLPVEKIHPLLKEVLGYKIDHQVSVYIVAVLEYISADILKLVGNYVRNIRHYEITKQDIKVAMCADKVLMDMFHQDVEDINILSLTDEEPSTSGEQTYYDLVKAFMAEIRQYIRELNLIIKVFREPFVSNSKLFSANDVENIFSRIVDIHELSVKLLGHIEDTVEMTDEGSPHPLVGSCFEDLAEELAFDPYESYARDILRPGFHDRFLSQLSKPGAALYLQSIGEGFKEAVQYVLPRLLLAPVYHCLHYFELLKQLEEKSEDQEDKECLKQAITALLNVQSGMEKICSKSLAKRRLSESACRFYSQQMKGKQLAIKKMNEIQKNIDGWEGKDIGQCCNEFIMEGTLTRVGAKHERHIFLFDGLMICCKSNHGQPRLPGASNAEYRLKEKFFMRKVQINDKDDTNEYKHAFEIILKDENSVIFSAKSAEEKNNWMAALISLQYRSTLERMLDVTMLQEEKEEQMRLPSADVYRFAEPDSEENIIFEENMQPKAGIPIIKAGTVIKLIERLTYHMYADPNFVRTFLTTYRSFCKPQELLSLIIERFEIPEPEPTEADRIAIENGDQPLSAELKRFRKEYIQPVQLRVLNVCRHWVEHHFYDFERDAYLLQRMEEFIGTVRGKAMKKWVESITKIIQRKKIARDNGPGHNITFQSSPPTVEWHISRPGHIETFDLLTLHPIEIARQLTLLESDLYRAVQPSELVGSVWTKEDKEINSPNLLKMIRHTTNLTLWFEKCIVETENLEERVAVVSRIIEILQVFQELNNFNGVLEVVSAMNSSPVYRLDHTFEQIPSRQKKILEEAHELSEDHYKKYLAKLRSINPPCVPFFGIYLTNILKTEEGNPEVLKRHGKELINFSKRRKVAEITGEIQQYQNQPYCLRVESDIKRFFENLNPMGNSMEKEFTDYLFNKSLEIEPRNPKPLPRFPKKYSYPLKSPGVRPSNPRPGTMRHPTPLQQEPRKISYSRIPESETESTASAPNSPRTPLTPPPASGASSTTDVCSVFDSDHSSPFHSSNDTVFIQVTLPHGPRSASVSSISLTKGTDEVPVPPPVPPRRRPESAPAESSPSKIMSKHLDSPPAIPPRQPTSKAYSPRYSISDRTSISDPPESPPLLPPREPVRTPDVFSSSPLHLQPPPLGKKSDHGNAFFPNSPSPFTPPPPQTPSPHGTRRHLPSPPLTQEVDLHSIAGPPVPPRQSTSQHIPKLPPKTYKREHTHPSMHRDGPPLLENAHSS
Assay: SOS1-KRas (G12C) FRET Assay
Method: Inhibition of the SOS1: KRAS interaction was measured using purified GST-tagged KRAS (res. 1-169, G12C, purified based on Hillig, et al., Proc Natl Acad Sci USA (2019); 116 (7): 2551-2560) and recombinant His10-SOS1 (res. 564-1049; purified based on Hillig, et al.). The final assay was performed at 20 uL with 0.5 nM SOS1 protein and 2.5 nM KRAS protein in a buffer of PBS, 0.1% BSA, 5 mM MgCl2, 0.0025% Igepal, 100 mM KF, 5 mM DTT in a white 384 square well OptiPlate (PerkinElmer, Cat. 6007290). A 2×KRAS working solution was prepared in an assay buffer containing 5 nM GST-KRAS G12C and 2 nM anti-GST-Eu (K) (Cisbio, Cat. 61GSTKLA) and pre-incubated for 15 minutes at 25° C. Compounds were serially diluted in 100% DMSO from 2 mM (positive control, compound I-13, PCT Publ. No. WO2018/115380) or 20 mM and then diluted 1:20 in assay buffer before incubation with a solution of SOS1 protein mixed 1:5 with anti-6His-XL665 FRET […] (Cisbio, Cat. 61HISXL) for 15 minutes at 25° C. before addition of 2×KRAS working solution. The final DMSO concentration is 0.5%. Plates were incubated at RT for 2 hrs before the FRET signal was measured using Envision at emission 665 nm and 615 nm.

C[C@@H](NC(=O)c1cc(N2CCOCC2)c(F)cc1N[C@H]1[C@@H]2CN(C)C[C@@H]21)c1cccc(C(F)F)c1F [US20250368634, Example 55]
IC50: 0.0198 µM
